Data as given in US9409908B2 (priority 2012, dated 2016).
Structures can show the parent of a compound that is named as a salt.

Columns and labels:
[1] = molecular target: purified human Factor XIa (Homo sapiens (Human), UniProt P03951); experiment: biochemical; type: biochemical; conditions: read-out: Factor XIa Ki
[2] = molecular target: purified human plasma kallikrein (Homo sapiens (Human), UniProt P03952); experiment: biochemical; type: biochemical; conditions: read-out: Plasma Kallikrein Ki
Sequence of purified human plasma kallikrein (P03952 whole entry, looked up): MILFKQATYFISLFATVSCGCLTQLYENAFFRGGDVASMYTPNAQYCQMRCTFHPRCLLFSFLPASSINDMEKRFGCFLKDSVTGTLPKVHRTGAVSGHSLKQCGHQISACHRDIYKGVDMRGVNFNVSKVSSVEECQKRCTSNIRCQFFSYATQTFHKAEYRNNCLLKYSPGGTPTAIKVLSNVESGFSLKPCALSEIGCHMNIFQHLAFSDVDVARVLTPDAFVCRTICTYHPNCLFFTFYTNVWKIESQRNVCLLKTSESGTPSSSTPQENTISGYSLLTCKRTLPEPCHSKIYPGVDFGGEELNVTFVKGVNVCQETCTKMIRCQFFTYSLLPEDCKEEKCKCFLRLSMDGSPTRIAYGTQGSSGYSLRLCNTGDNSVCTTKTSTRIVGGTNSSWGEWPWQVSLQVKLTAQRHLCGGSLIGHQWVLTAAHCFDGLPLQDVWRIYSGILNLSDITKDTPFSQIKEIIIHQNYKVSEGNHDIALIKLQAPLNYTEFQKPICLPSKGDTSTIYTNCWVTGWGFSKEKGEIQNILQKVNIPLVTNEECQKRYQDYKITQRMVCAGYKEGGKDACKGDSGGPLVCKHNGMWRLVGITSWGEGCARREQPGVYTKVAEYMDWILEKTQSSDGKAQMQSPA
Sequence of purified human plasma kallikrein (P03952 whole entry partner, looked up): as the sequence (P03952 whole entry, looked up) above

Sequence of purified human Factor XIa (P03951 whole entry, looked up): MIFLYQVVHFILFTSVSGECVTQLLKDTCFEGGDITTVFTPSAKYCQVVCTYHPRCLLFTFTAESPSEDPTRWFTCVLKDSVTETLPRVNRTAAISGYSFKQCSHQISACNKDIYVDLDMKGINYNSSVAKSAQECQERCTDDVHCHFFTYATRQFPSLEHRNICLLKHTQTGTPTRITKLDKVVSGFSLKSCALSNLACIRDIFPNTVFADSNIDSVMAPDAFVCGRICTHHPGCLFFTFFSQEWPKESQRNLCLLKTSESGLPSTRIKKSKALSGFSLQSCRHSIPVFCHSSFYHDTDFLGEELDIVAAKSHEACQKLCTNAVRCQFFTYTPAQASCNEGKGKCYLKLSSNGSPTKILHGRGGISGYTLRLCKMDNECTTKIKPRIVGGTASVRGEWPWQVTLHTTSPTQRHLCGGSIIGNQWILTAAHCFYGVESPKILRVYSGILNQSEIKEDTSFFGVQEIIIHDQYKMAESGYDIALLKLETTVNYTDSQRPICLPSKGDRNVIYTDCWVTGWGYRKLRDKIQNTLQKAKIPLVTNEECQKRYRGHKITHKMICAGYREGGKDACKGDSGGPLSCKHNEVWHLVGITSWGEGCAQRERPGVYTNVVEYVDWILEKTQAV
Sequence of purified human Factor XIa (P03951 whole entry partner, looked up): as the sequence (P03951 whole entry, looked up) above

| SMILES | Ki [1] [nM] | Ki [2] [nM] |
| --- | --- | --- |
| COC(=O)Nc1ccc2c(c1)NC(=O)[C@H](C)CCC[C@H](N1CCC(c3c(C(C)=O)ccc(Cl)c3F)=CC1=O)c1cccc-2c1 [Example 171, Methyl N-[(10R,14S)-14-[4-(6-acetyl-3-chloro-2-fluorophenyl)-6-oxo-1,2,3,6-tetrahydropyridin-1-yl]-10-methyl-9-oxo-8-azatricyclo[13.3.1.0^2,7]nonadeca-1(18),2,4,6,15(19),16-hexaen-5-yl]carbamate] | 0.17 | 8.87 |
| C[C@@H]1CCC[C@H](N2CCC(c3c(Br)ccc(Cl)c3F)=CC2=O)c2cc(ccn2)-c2cc(F)c(F)cc2NC1=O [Example 206, (10R,14S)-14-[4-(6-bromo-3-chloro-2-fluorophenyl)-6-oxo-1,2,3,6-tetrahydropyridin-1-yl]-4,5-difluoro-10-methyl-8,16-diazatricyclo[13.3.1.0^2,7]nonadeca-1(19),2(7),3,5,15,17-hexaen-9-one, TFA salt] | 11.8 | 27.5 |
| Cc1nn(C)cc1-c1ccc(Cl)c(F)c1C1=CC(=O)N([C@H]2CCC[C@@H](C)C(=O)Nc3ccccc3-c3ccnc2c3)CC1 [Example 60, (10R,14S)-14-{4-[3-Chloro-6-(1,3-dimethyl-1H-pyrazol-4-yl)-2-fluorophenyl]-6-oxo-1,2,3,6-tetrahydropyridin-1-yl}-10-methyl-8,16-diazatricyclo[13.3.1.0^2,7]nonadeca-1(19),2,4,6,15,17-hexaen-9-one, TFA salt] | > 409 | 1090 |
| C[C@@H]1CCC[C@H](N2CCC(c3c(F)ccc(Cl)c3F)=CC2=O)c2cc(ccn2)-c2ccc(NC3O[C@H](CO)[C@@H](O[C@H]4O[C@H](CO)[C@@H](O[C@H]5O[C@H](CO)[C@@H](O)[C@H](O)[C@H]5O)[C@H](O)[C@H]4O)[C@H](O)[C@H]3O)cc2NC1=O (stereo partly drawn) [Example 133, (10R,14S)-14-[4-(3-chloro-2,6-difluorophenyl)-6-oxo-1,2,3,6-tetrahydropyridin-1-yl]-5-{[(3R,4R,5S,6R)-5-{[(2R,3R,4R,5S,6R)-3,4-dihydroxy-6-(hydroxymethyl)-5-{[(2R,3R,4S,5S,6R)-3,4,5-trihydroxy-6-(hydroxymethyl)oxan-2-yl]oxy}oxan-2-yl]oxy}-3,4-dihydroxy-6-(hydroxymethyl)oxan-2-yl]amino}-10-methyl-8,16-diazatricyclo[13.3.1.0^2,7]nonadeca-1(19),2,4,6,15,17-hexaen-9-one] | 4.77 | 12.6 |
| CC1CCC[C@H](N2CCC(c3c(F)ccc(Cl)c3F)=CC2=O)c2cc(ccn2)-c2ccc(C(N)=O)cc2NC1=O (stereo partly drawn) [Example 107, (14S)-14-[4-(3-Chloro-2,6-difluorophenyl)-6-oxo-1,2,3,6-tetrahydropyridin-1-yl]-10-methyl-9-oxo-8,16-diazatricyclo[13.3.1.0^2,7]nonadeca-1(18),2,4,6,15(19),16-hexaene-5-carboxamide, TFA salt] | 17.4 | 88 |
| C[C@@H]1CCC[C@H](N2CCC(c3c(F)ccc(Cl)c3F)=CC2=O)c2cc(ccn2)-c2cc(C(=O)O)c(N)cc2NC1=O [Example 198, (10R,14S)-5-amino-14-[4-(3-chloro-2,6-difluorophenyl)-6-oxo-1,2,3,6-tetrahydropyridin-1-yl]-10-methyl-9-oxo-8,16-diazatricyclo[13.3.1.0^2,7]nonadeca-1(19),2,4,6,15,17-hexaene-4-carboxylic acid, 2 TFA salt] | < 0.05 | 1 |
| C[C@@H]1CCC[C@H](N2CCC(c3c(F)ccc(Cl)c3F)=CC2=O)c2cc(ccn2)-c2ccc(Nc3cnccn3)cc2NC1=O [Example 93, (10R,14S)-14-[4-(3-Chloro-2,6-difluorophenyl)-6-oxo-1,2,3,6-tetrahydropyridin-1-yl]-10-methyl-5-[(pyrazin-2-yl)amino]-8,16-diazatricyclo[13.3.1.0^2,7]nonadeca-1(19),2(7),3,5,15,17-hexaen-9-one, 2 TFA salt] | 1.4 | 3 |
